Experimental data taken from patent US20250120399A1, “METHODS AND COMPOSITIONS FOR ALTERING METABOLITES IN VITIS SPP. AND PREVENTING PESTS AND PATHOGENS” (Impello Biosciences, Inc., priority 2022, published 2025).

Assays:
Format in all cases: in vivo
[1] = system: Botrytis cinerea; assay: Botrytis bunch rot percent disease incidence and severity, 2022 field trial (Example 4)
Experimental: Similar to Example 3 above, additional field trials were conducted in 2022 to investigate the efficacy of MDJ in preventing bunch rot (Botrytis cinerea). The objective of this trial was to evaluate the fungicidal efficacy of MDJ at 32 oz and 48 oz/A against Botrytis cinerea on wine grapes. Serenade® Opti at 16 oz/A was included for comparative purposes. Pro 90 a NIS with anti-foaming agent was included with each treatment at 2 oz/100 gal. The trial was conducted on 21-year-old Carignane grapes (Vitis vinifera).
The first of three foliar applications was initiated June 22nd (prior to veraison) followed a month later (July 21st when fruit was at early (5 to 10%) veraison, then at 40% veraison on August 1st. Applications were made using a backpack mistblower based on a spray volume of 80 gallons per acre. As a separate control of Erysiphe necator (powdery mildew), a maintenance fungicide program of two applications in June of fenarimol (4 oz/A) followed by two applications of fenarimol+Quintec (6 oz/A) at 2 week intervals was applied.
Temperatures throughout the trial ranged from highs of 89 to 104 degrees and lows of 50 to 66 degrees F. All treatments provided good crop safety with no phytotoxicity observed. Assessments were based on visual observation of the percent disease incidence and severity at each evaluation.

[2] = system: Aspergillus carbonarius; assay: Sour rot incidence and severity on black seedless grapes, 2022 field trial (Example 5); conditions: for Sour rot clusters of High severity (PESSEV) / Sour rot clusters of Low severity (PESSEV) / Sour rot clusters of Medium severity (PESSEV): ABCDE; for Sour rot clusters of High severity (PESSEV): Aug. 10, 2022, high = >51%; for Sour rot clusters of Low severity (PESSEV): Aug. 10, 2022, low = <40% of cluster area; for Sour rot clusters of Medium severity (PESSEV): Aug. 10, 2022, medium = 41%-50%; for Sour rot infected clusters (PESINC): applications ABCDE, rated Aug. 10, 2022
Experimental: Field trials were conducted in California 2022 (a dry year) to investigate the efficacy of MDJ in preventing Sour Rot caused by Aspergillus carbonarius (also known as summer bunch rot, abbreviated ASPECA in Table 7). Black seedless grapes (Vitis labrusca) were used in this trial. Four vines were used per plot. The plots were arranged in a randomized complete block design with six replicates (plots) per treatment. The plots were sprayed five times (ABCDE) at a rate of 500 gal/AC.
Treatments consisted of MDJ at 32 oz and 48 oz/A. A treatment of Regalia® at 1.5 qt/100 gal and Stargus® at 2 qt/100 gal was included for comparative purposes. Application D occurred at 5-10% veraison. Application E occurred at 40% veraison.
Botrytis and powdery mildew were absent for the trial. An evaluation of sour rot was completed before the harvest. The area of an infected cluster was estimated into a percentage and categorized into three levels of severity: low (<40%), medium (41%-50%), and high (>51%). The majority of individual infected clusters had low severity.

[3] = system: Kyoho grapes (Vitis vinifera×Vitis labrusca); assay: Cluster weight, grape weight, diameter, grapes per cluster, pH and Brix in Kyoho grapes (Example 6); conditions: for Average Brix (FRUIT, BRIX) / Average diameter (FRUIT, DIAMET) / Average fruit per cluster (CLUSTR, COUNT) / Individual grape weight (FRUIT, WEIGHT) / pH (FRUIT, PH) / Average Weight of cluster: applications ABCD; for Average Brix (FRUIT, BRIX) / Average diameter (FRUIT, DIAMET) / Average fruit per cluster (CLUSTR, COUNT) / Individual grape weight (FRUIT, WEIGHT): rated Aug. 17, 2022; for pH (FRUIT, PH): rated Aug. 17, 2022, scale 0-14
Experimental: Field trials were conducted in California 2022 (a dry year) to investigate the efficacy of MDJ in preventing Sour Rot caused by Aspergillus carbonarius (also known as summer bunch rot, abbreviated ASPECA in Table 10). Kyoho grapes (Vitis vinifera×Vitis labrusca) were used in this trial. Three vines were used per plot. The plots were arranged in a randomized complete block design with six replicates (plots) per treatment (24 plots total). The plots were sprayed four times (ABCD) at a rate of 500 gal/AC.
Treatments consisted of MDJ at 32 oz and 48 oz/A. A treatment of Regalia® at 1.5 qt/100 gal and Stargus® at 2 qt/100 gal was included for comparative purposes.

## CCCCCC1C(=O)CCC1CC(=O)OC (stereo not drawn) [MDJ, methyl dihydrojasmonate]
[1]; Carignane wine grapes, higher rate of MDJ (48 oz/A)
  Control of Botrytis incidence and severity, higher vs lower rate: numerically better control of Botrytis incidence and severity
[1]; MDJ Elicitor at both rates (32 and 48 oz/A), 26DAC, 20 bunches per plot
  B. cinerea suppression (disease incidence) vs untreated grapes: significantly better B. cinerea suppression
[1]; higher rate of MDJ (48 oz/A), 7 and 14 days after the third treatment (7 and 14DAC)
  Control of Botrytis, higher vs lower rate: significantly better control
[1]; low rate of MDJ (32 oz/A), 26DAC
  Control of Botrytis incidence compared to the Serenade Opti standard: significantly better control of Botrytis incidence
[2]; 32 oz/a
  Sour rot clusters of High severity (PESSEV): 1.3— NUMBER
  Sour rot clusters of Low severity (PESSEV): 7.2— NUMBER
  Sour rot clusters of Medium severity (PESSEV): 5.3— NUMBER
  Sour rot infected clusters (PESINC): 13.8— NUMBER
[2]; 48 oz/a
  Sour rot clusters of High severity (PESSEV): 0.8— NUMBER
  Sour rot clusters of Low severity (PESSEV): 6.2— NUMBER
  Sour rot clusters of Medium severity (PESSEV): 5.3— NUMBER
  Sour rot infected clusters (PESINC): 12.3— NUMBER
[2]; higher rate of MDJ Elicitor (48 oz/A)
  Control of sour rot compared to the rest of the treatments: most effective at controlling sour rot
[3]; 32 oz/a
  Average Brix (FRUIT, BRIX): 20.73%
  Average diameter (FRUIT, DIAMET): 23.778 mm
  Average fruit per cluster (CLUSTR, COUNT): 32.5 number
  Individual grape weight (FRUIT, WEIGHT): 7.277 g
  pH (FRUIT, PH): 4.0
[3]; 48 oz/a
  Average Brix (FRUIT, BRIX): 20.17%
  Average diameter (FRUIT, DIAMET): 23.917 mm
  Average fruit per cluster (CLUSTR, COUNT): 34.3 number
  Individual grape weight (FRUIT, WEIGHT): 7.232 g
  pH (FRUIT, PH): 4.0
[3]; Aug. 17, 2022, 32 oz/a
  Average Weight of cluster: 234.287a g
[3]; Aug. 17, 2022, 48 oz/a
  Average Weight of cluster: 246.350a g
[3]; MDJ treatment
  Diameter of individual grapes: did not significantly affect
  Weight of individual grapes: did not significantly affect
  pH of individual grapes: did not significantly affect
[3]; both rates of MDJ (32 and 48 oz/A)
  Grapes per cluster vs standard control (Regalia and Stargus): significantly more grapes per cluster
[3]; higher rate of MDJ (48 oz/A)
  Brix level compared to other treatments: statistically reduced the Brix level
